Legend:
[1] = target: Serine/threonine-protein kinase pim-1 (Homo sapiens, UniProt P11309); test: Inhibition of recombinant Pim1 (unknown origin) by electrochemiluminescence assay
[2] = target: Serine/threonine-protein kinase pim-2 (Homo sapiens, UniProt Q9P1W9); test: Inhibition of recombinant Pim2 (unknown origin) by electrochemiluminescence assay
Chain of Serine/threonine-protein kinase pim-2 (Q9P1W9 whole entry): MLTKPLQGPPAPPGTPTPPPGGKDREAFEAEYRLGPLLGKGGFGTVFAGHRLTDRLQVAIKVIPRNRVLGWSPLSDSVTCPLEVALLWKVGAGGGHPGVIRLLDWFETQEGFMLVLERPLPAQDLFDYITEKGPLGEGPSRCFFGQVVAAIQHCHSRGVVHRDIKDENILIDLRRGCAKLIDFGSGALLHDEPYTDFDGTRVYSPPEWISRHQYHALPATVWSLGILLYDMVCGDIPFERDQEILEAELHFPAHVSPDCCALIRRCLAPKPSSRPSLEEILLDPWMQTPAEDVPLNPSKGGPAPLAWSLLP

Chain of Serine/threonine-protein kinase pim-1 (P11309 whole entry): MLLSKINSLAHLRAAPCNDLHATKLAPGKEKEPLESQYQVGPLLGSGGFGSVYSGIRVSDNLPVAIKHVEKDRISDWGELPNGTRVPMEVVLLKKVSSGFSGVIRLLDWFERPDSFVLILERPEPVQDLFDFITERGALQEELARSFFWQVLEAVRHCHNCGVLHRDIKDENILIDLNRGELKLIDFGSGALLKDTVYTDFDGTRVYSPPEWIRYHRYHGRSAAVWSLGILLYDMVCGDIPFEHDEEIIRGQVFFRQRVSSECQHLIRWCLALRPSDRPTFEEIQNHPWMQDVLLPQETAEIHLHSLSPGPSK

| IC50 [1] | IC50 [2] | SMILES |
| --- | --- | --- |
| > 1000 nM | > 1000 nM | N[C@H]1CCCN(c2cnccc2Nc2ncc3ccc(-c4c(F)cccc4F)nn23)C1 [US9187486, 80] |
| – | > 1000 nM | N[C@H]1CCN(c2ccncc2Nc2ncc3ccc(-c4c(F)cccc4F)nn23)C1 [US9187486, 13] |
